In patent US20240425464A1, “Substituted Monohydrazides as Potent Antifungal Agents” (University of Kentucky Research Foundation, priority 2023, published 2024):
Values after ≈ are worked out from the molar mass of the structure shown. Read-outs that look alike come from different tables or passages of the source.

Test system: Candida auris strain AR Bank #384 (K)
Experiment: MIC determination by in vitro antifungal assay
Format: cell-based
Protocol: The antifungal agent amphotericin B (AmB) was purchased from VWR (Radnor PA, USA). AmB was dissolved in DMSO at a final concentration of 5 mg/mL and was stored at −20° C., protected from light. Candida albicans American Type Culture Collection (ATCC) 10231 (strain A), C. albicans ATCC 64124 (B), and C. albicans ATCC MYA-2876 (C) were obtained from Utah State University. C. albicans ATCC 90819 (D), C. albicans ATCC MYA-2310 (E), C. albicans ATCC MYA-1237 (F), C. albicans ATCC MYA-1003 (G), Candida glabrata ATCC 2001 (H), Candida krusei ATCC 6258 (I), Candida parapsilosis ATCC 22019 (J), Cryptococcus neoformans ATCC MYA-895 (M), Aspergillus terreus ATCC MYA-3633 (N), and Aspergillus flavus ATCC MYA-3631 (0) were obtained from the American Type Culture Collection (ATCC; Manassas, VA, USA). Aspergillus nidulans ATCC 38163 (P) was obtained from University of Kentucky. Clinically derived Aspergillus fumigatus NRRL 163 (Q), A. fumigatus NRRL 5109 (R), and A. fumigatus NRRL 6113 (S) were obtained from Northern Regional Research Laboratory (NRRL). Candida auris 384 (K), C. auris 390 (L), and fungal strains 381-400 (including 10 C. auris (AR Bank #381-390), 3 Candida duobushaemulonii (AR Bank #391, AR Bank #392, and AR Bank #394), 2 Candida haemulonii (AR Bank #393 and AR Bank #395), 1 Kodameae ohmeri (AR Bank #396), 1 C. krusei (AR Bank #397), 1 Candida lusitaniae (AR Bank #398), and 2 Saccharomyces cerevisiae strains (AR Bank #399 and AR Bank #400)) were part of a larger fungal library from the AR Bank maintained by the Centers for Disease Control and Prevention (CDC; Atlanta, GA, USA). Filamentous fungi and yeasts were cultivated at 35° C. in RPMI 1640 medium (with L-glutamine, without sodium bicarbonate, Sigma-Aldrich, St. Louis, MO) buffered to a pH of 7.0 with 0.165 M morpholinepropanesulfonic acid (MOPS) buffer (Sigma-Aldrich). For cytotoxicity assays, HepG2 and the mouse macrophage cell line J774A.1 were obtained from University of Kentucky. The human embryonic kidney cell line, HEK-293, was bought from the ATCC. Mammalian cells were grown in Dulbecco's Modified Eagle's Medium (DMEM) (from VWR) with 10% fetal bovine serum (FBS) (from VWR) and 1% Pen/Strep (from ATCC). Cell lines were cultured at 37° C. with 5% CO2 and passaged by trypsinization with 0.05% trypsin: 0.53 mM EDTA (from Sigma-Aldrich).
From the actively growing yeast culture, 100 µL were then transferred to 900 μL of RPMI 1640 medium and re-adjusted to achieve OD600 of 0.12 (˜1×10^6 CFU/mL). The cell suspension was further diluted to achieve 1:100 in RPMI 1640 medium.
Finally, the activity of these monohydrazides was explored against […] non-Candida strains: Cryptococcus neoformans ATCC MYA-895 (M), Aspergillus terreus ATCC MYA-3633 (N), Aspergillus flavus ATCC MYA-3631 (O), Aspergillus nidulans ATCC 38163 (P), Aspergillus fumigatus NRRL 163 (Q), A. fumigatus NRRL 5109 (R), and A. fumigatus NRRL 6113 (S) (Tables 1A and 1B). The double dilution method was used with concentrations ranging from 0.06 to 31.3 j·tg mL^−1 for monohydrazides 1a-9j, and the commercially available positive antifungal control amphotericin B (AmB).

[1] = Candidozyma auris, strain K = C. auris AR Bank # 0384 (Tables 1A/1B), read-out: MIC
[2] = strain K = C. auris AR Bank # 0384 (Tables 1A/1B)
[3] = Candidozyma auris, C. auris AR Bank #384 (K), read-out: MIC
[4] = Candidozyma auris, C. auris AR Bank # 384 (K) (Table 2B), read-out: MIC
[5] = C. auris AR Bank # 384 (K) (Table 2B)

## O=C(NNc1ccc(F)cc1F)c1ccc(Br)cn1 [Compound 4g]
[1]
  MIC: 3.9 mg/L (≈ 11.9 µM)

## O=C(NNc1cccc(F)c1)c1ccccn1 [Compound 2a]
C. auris AR Bank #384 (K)
  MIC: 1.95 μg/mL^−1
[2]
  MIC: 1.95 μg/mL^−1

## O=C(NNc1ccc(F)cc1)c1ccccn1 [Compound 2d]
[3]
  MIC: 3.9 mg/L (≈ 16.9 µM)
[1]
  MIC: 3.9 mg/L (≈ 16.9 µM)

## O=C(NNc1ccc(F)cc1F)c1ccc(F)cn1 [Compound 3g]
[4]
  MIC: 0.98 mg/L (≈ 3.67 µM)
[1]
  MIC: 7.8 mg/L (≈ 29.2 µM)

## COc1ccc(NNC(=O)c2ccc(Br)cn2)cc1 [Compound 4f]
[1]
  MIC: 1.95 mg/L (≈ 6.05 µM)

## O=C(NNc1ccc(F)cc1F)c1cnccn1 [Compound 9g]
[3]
  MIC: 3.9 mg/L (≈ 15.6 µM)
[1]
  MIC: 3.9 mg/L (≈ 15.6 µM)

## O=C(NNc1cccc(F)c1)c1ccc(F)cc1F [Compound 1a]
[2]
  MIC: 1.95 μg/mL^−1

## COc1ccc(NNC(=O)c2cccc(F)n2)cc1 [Compound 5f]
[1]
  MIC: 1.95 mg/L (≈ 7.46 µM)

## COc1cccc(NNC(=O)c2ccccn2)c1 [Compound 2c]
C. auris AR Bank #384 (K)
  MIC: 0.98 μg/mL^−1
[2]
  MIC: 0.98 μg/mL^−1

## O=C(NNc1cc(F)ccc1F)c1ccccn1 [Compound 2h]
[3]
  MIC: 1.95 mg/L (≈ 7.82 µM)
[1]
  MIC: 0.24 mg/L (≈ 0.963 µM)

## O=C(NNc1cc(F)cc(F)c1)c1ccc(F)cc1F [Compound 1i]
[1]
  MIC: 15.6 mg/L (≈ 54.9 µM)

## O=C(NNc1cc(F)cc(F)c1)c1ccccn1 [Compound 2i]
[3]
  MIC: 0.98 mg/L (≈ 3.93 µM)
[1]
  MIC: 0.24 mg/L (≈ 0.963 µM)

## O=C(NNc1ccc(Cl)cc1)c1ccccn1 [Compound 2e]
C. auris AR Bank #384 (K)
  MIC: 1.95 μg/mL^−1
[2]
  MIC: 1.95 μg/mL^−1

## COc1cccc(NNC(=O)c2ccc(F)cc2F)c1 [Compound 1c]
[1]
  MIC: 1.95 mg/L (≈ 7.01 µM)

## O=C(NNc1cccc(Cl)c1)c1ccccn1 [Compound 2b]
C. auris AR Bank #384 (K)
  MIC: 0.98 μg/mL^−1
[2]
  MIC: 0.98 μg/mL^−1

## O=C(NNc1cc(F)ccc1F)c1cnccn1 [Compound 9h]
[1]
  MIC: 0.49 mg/L (≈ 1.96 µM)

## O=C(NNc1ccc(Cl)cc1)c1ccc(F)cc1F [Compound 1e]
[2]
  MIC: 7.8 μg/mL^−1

## O=C(NNc1cccc(F)c1)c1ccc(F)cn1 [Compound 3a]
[2]
  MIC: 1.95 μg/mL^−1

## COc1cccc(NNC(=O)c2cnccn2)c1 [Compound 9c]
[3]
  MIC: 1.95 mg/L (≈ 7.98 µM)
[1]
  MIC: 1.95 mg/L (≈ 7.98 µM)

## COc1cccc(NNC(=O)c2nc(F)ccc2F)c1 [Compound 8c]
[1]
  MIC: 15.6 mg/L (≈ 55.9 µM)

## O=C(NNc1cc(F)cc(F)c1)c1cnccn1 [Compound 9i]
[1]
  MIC: 0.49 mg/L (≈ 1.96 µM)

## O=C(NNc1ccc(F)cc1F)c1cccc(F)n1 [Compound 5g]
[4]
  MIC: 3.9 mg/L (≈ 14.6 µM)
[1]
  MIC: 7.8 mg/L (≈ 29.2 µM)

## O=C(NNc1cccc(F)c1)c1cccc(F)n1 [Compound 5a]
[2]
  MIC: 1.95 μg/mL^−1

## O=C(NNc1ccc(F)cc1)c1cnccn1 [Compound 9d]
[1]
  MIC: 0.49 mg/L (≈ 2.11 µM)

## COc1ccc(NNC(=O)c2ccc(F)cc2F)cc1 [Compound 1f]
[1]
  MIC: 1.95 mg/L (≈ 7.01 µM)

## O=C(NNc1ccc(Cl)cc1)c1nc(F)ccc1F [Compound 8e]
[5]
  MIC: 7.8 μg/mL^−1
[2]
  MIC: 7.8 μg/mL^−1

## O=C(NNc1cc(Cl)cc(Cl)c1)c1ccc(F)cc1F [Compound 1j]
[4]
  MIC: 15.6 mg/L (≈ 49.2 µM)
[1]
  MIC: > 31.3 mg/L

## O=C(NNc1ccc(F)cc1)c1ccc(Br)cn1 [Compound 4d]
[4]
  MIC: 1.95 mg/L (≈ 6.29 µM)
[1]
  MIC: 7.8 mg/L (≈ 25.2 µM)

## O=C(NNc1ccc(F)cc1)c1cccc(F)n1 [Compound 5d]
[4]
  MIC: 0.49 mg/L (≈ 1.97 µM)
[1]
  MIC: 1.95 mg/L (≈ 7.82 µM)

## O=C(NNc1ccc(F)cc1F)c1ncc(F)cc1F [Compound 7g]
[4]
  MIC: 0.98 mg/L (≈ 3.44 µM)
[1]
  MIC: 7.8 mg/L (≈ 27.3 µM)

## O=C(NNc1ccc(F)cc1)c1ccc(F)cc1F [Compound 1d]
[1]
  MIC: 1.95 mg/L (≈ 7.32 µM)

## COc1ccc(NNC(=O)c2cccc(Br)n2)cc1 [Compound 6f]
[1]
  MIC: 1.95 mg/L (≈ 6.05 µM)

## O=C(NNc1cccc(F)c1)c1ncc(F)cc1F [Compound 7a]
[2]
  MIC: 1.95 μg/mL^−1

## COc1ccc(NNC(=O)c2ccc(F)cn2)cc1 [Compound 3f]
[2]
  MIC: 3.9 μg/mL^−1

## O=C(NNc1ccc(F)cc1)c1nc(F)ccc1F [Compound 8d]
[4]
  MIC: 0.49 mg/L (≈ 1.83 µM)
[1]
  MIC: 1.95 mg/L (≈ 7.3 µM)

## O=C(NNc1cc(F)ccc1F)c1ccc(F)cc1F [Compound 1h]
[1]
  MIC: 31.3 mg/L (≈ 110 µM)

## O=C(NNc1ccc(Cl)cc1)c1ncc(F)cc1F [Compound 7e]
[5]
  MIC: 7.9 μg/mL^−1
[2]
  MIC: 3.9 μg/mL^−1

## O=C(NNc1cc(Cl)cc(Cl)c1)c1ccccn1 [Compound 2j]
[3]
  MIC: 7.8 mg/L (≈ 27.6 µM)
[1]
  MIC: 7.8 mg/L (≈ 27.6 µM)

## O=C(NNc1cccc(F)c1)c1ccc(Br)cn1 [Compound 4a]
[2]
  MIC: 1.95 μg/mL^−1

## O=C(NNc1cccc(F)c1)c1cccc(Br)n1 [Compound 6a]
[2]
  MIC: 3.9 μg/mL^−1

## O=C(NNc1cccc(Cl)c1)c1ccc(F)cc1F [Compound 1b]
[4]
  MIC: 7.8 mg/L (≈ 27.6 µM)
[1]
  MIC: 13.6 mg/L (≈ 48.1 µM)

## O=C(NNc1ccc(Cl)cc1)c1ccc(F)cn1 [Compound 3e]
[5]
  MIC: 7.8 μg/mL^−1
[2]
  MIC: 7.8 μg/mL^−1

## COc1cccc(NNC(=O)c2ccc(F)cn2)c1 [Compound 3c]
[5]
  MIC: 0.49 μg/mL^−1
[2]
  MIC: 1.95 μg/mL^−1

## COc1ccc(NNC(=O)c2cnccn2)cc1 [Compound 9f]
[3]
  MIC: 0.98 mg/L (≈ 4.01 µM)
[1]
  MIC: 0.49 mg/L (≈ 2.01 µM)

## O=C(NNc1ccc(Cl)cc1)c1cccc(F)n1 [Compound 5e]
[5]
  MIC: 3.9 μg/mL^−1
[2]
  MIC: 3.9 μg/mL^−1

## COc1cccc(NNC(=O)c2ccc(Br)cn2)c1 [Compound 4c]
[1]
  MIC: 1.95 mg/L (≈ 6.05 µM)

## O=C(NNc1cccc(F)c1)c1cnccn1 [Compound 9a]
[2]
  MIC: 0.98 μg/mL^−1

## O=C(NNc1ccc(F)cc1)c1cccc(Br)n1 [Compound 6d]
[4]
  MIC: 0.98 mg/L (≈ 3.16 µM)
[1]
  MIC: 3.9 mg/L (≈ 12.6 µM)

## O=C(NNc1ccc(F)cc1F)c1ccccn1 [Compound 2g]
[3]
  MIC: 0.49 mg/L (≈ 1.97 µM)
[1]
  MIC: 0.49 mg/L (≈ 1.97 µM)

## O=C(NNc1ccc(F)cc1F)c1ccc(F)cc1F [Compound 1g]
[1]
  MIC: 15.6 mg/L (≈ 54.9 µM)

## O=C(NNc1cccc(F)c1)c1nc(F)ccc1F [Compound 8a]
[2]
  MIC: 1.95 μg/mL^−1

## O=C(NNc1cc(Cl)cc(Cl)c1)c1cnccn1 [Compound 9j]
[1]
  MIC: 15.6 mg/L (≈ 55.1 µM)

## O=C(NNc1ccc(F)cc1)c1ccc(F)cn1 [Compound 3d]
[5]
  MIC: 0.98 μg/mL^−1
[2]
  MIC: 3.9 μg/mL^−1

## O=C(NNc1cccc(Cl)c1)c1cnccn1 [Compound 9b]
[3]
  MIC: 0.98 mg/L (≈ 3.94 µM)
[1]
  MIC: 1.95 mg/L (≈ 7.84 µM)

## O=C(NNc1ccc(F)cc1F)c1nc(F)ccc1F [Compound 8g]
[4]
  MIC: 0.98 mg/L (≈ 3.44 µM)
[1]
  MIC: 3.9 mg/L (≈ 13.7 µM)

## COc1ccc(NNC(=O)c2ccccn2)cc1 [Compound 2f]
[3]
  MIC: 3.9 mg/L (≈ 16 µM)
[1]
  MIC: 3.9 mg/L (≈ 16 µM)

## O=C(NNc1ccc(F)cc1)c1ncc(F)cc1F [Compound 7d]
[4]
  MIC: 0.49 mg/L (≈ 1.83 µM)
[1]
  MIC: 1.95 mg/L (≈ 7.3 µM)
